One test addresses T1, HDAC3/NCOR1 Complex (Homo sapiens, UniProt O15379).
T1 construct: purchased ENZO Life Sciences BML-SE515
As to the kind of experiment: HDAC activity with fluorogenic lysyl substrates. Format: biochemical. The conditions noted are these: 50 μM substrate. How it is done: (§1) The Ac-Lys(Succ.)-AMC substrate was tested for activity with recombinant preparations of human HDACs 1-11, SIRTs 1-4, 6 and 7, a complex of HDAC3 with a fragment of the activating protein NCOR1 and with HeLa nuclear extract, a rich source of active HDACs in their native multiprotein complexes.
(§2) Enzyme and extract catalog products obtained from ENZO Life Sciences included: HDAC1 (Cat. # BML-SE456), HDAC2 (Cat. # BML-SE500), HDAC3 (Cat. # BML-SE507), HDAC3/NCOR1 Complex (Cat. # BML-SE515), HDAC6 (Cat. # BML-SE508), HDAC8 (Cat. # BML-SE145), HDAC10 (Cat. # BML-SE559), HDAC11 (Cat. # BML-SE560), SIRT1 (Cat. # BML-SE239), SIRT2 (Cat. # BML-SE251), SIRT3 (Cat. # BML-SE270), SIRT5 (Cat. # BML-SE555), HeLa Nuclear Extract (Cat. # BML-KI140), Trypsin (“Fluor de Lys Developer”, 80 mg/ml bovine trypsin in 1 mM HCl, Cat. # BML-KI105 or “Fluor de Lys Developer II”, 80 mg/ml bovine trypsin in 1 mM HCl, Cat. # BML-KI176). […] Enzymes obtained from BPS Bioscience, San Diego, Calif. included: human recombinants SIRT4 (Cat. #50015), SIRT6 (Cat. #50017), SIRT7 (Cat. #50018). HeLa whole cell extract was obtained from HeLa S3 cells (American Type Culture Collection) grown in a medium of MEM/10% fetal bovine serum (FBS) as follows: 1) 9×10^6 cells were suspended by trypsinization, followed by a phosphate buffered saline (PBS) rinse and addition of MEM/10% FBS (1.5 mL) to eliminate trypsin before transfer to a 15 mL conical tube; 2) cells were sedimented by a low speed centrifugation, gently resuspended in PBS and sedimented again and supernatant removed; 3) lysis was induced by resuspension in 0.8 mL 50 mM Tris/HCl, pH 8.0 with the non-denaturing detergent NP-40 (0.5%), placement on ice and brief vortexing every 5 min. for 30 min.; 4) 100 μl of a concentrated salt solution in the same buffer was added in order to bring the final buffer composition to 50 mM Tris/C1, pH 8.0, 137 mM NaCl, 2.7 mM KCl, 1 mM MgCl2, 0.5% NP-40; 5) particulate matter was cleared by centrifugation and the cleared lysate supernatant transferred to a 1.5 mL Eppendorf tube and stored on ice until use in activity assays.
(§3) Assays were performed at 37° C., according to the manufacturer's instructions for the “SIRT1 Fluorometric Drug Discovery Kit” from Enzo Life Sciences (ELS) (Cat. # BML-AK555), with exceptions described as follows. Where indicated in figures and text, SIRT1 enzyme was replaced with another enzyme or extract and the “Fluor de Lys-SIRT1 Substrate” (Ac-Arg-His-Lys-Lys(Ac)-AMC; ELS Cat. # BML-KI-177) was replaced with another acetylated, succinylated or trifluoroacetylated substrate.

A further test deals with T2, HDAC10 (Homo sapiens, UniProt Q969S8).
T2 construct: purchased ENZO Life Sciences BML-SE559
T2 sequence (Q969S8 1-669): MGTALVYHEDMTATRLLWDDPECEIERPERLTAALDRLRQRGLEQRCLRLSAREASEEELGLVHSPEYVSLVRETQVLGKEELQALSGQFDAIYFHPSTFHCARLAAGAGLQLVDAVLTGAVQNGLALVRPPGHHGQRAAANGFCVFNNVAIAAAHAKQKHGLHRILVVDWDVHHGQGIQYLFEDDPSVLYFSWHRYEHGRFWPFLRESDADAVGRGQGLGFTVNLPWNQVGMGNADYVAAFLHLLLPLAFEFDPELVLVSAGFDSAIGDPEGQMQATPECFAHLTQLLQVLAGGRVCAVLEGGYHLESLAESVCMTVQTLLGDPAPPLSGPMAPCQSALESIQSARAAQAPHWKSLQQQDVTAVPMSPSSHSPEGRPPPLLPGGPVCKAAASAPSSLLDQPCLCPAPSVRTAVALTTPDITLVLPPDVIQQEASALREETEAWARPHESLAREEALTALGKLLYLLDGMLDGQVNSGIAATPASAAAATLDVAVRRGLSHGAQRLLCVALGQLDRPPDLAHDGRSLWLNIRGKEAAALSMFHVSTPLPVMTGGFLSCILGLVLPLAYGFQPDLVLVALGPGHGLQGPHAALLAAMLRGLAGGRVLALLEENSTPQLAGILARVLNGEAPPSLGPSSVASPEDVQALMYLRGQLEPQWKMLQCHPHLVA
Put plainly: HDAC activity with fluorogenic lysyl substrates. In kind it is biochemical. The conditions noted are these: 50 μM substrate. On the procedure: as §1, §2, §3

A further test addresses T3, HDAC1 (Homo sapiens, UniProt Q13547).
T3 construct: purchased ENZO Life Sciences BML-SE456
As to the kind of experiment: HDAC activity with fluorogenic lysyl substrates. In kind it is biochemical. To be noted: 50 μM substrate. On the procedure: as §1, §2, §3

The target of the next test is T4, SIRT6 (Homo sapiens, UniProt Q8N6T7).
T4 construct: purchased BPS Bioscience 50017
T4 sequence (Q8N6T7 whole entry): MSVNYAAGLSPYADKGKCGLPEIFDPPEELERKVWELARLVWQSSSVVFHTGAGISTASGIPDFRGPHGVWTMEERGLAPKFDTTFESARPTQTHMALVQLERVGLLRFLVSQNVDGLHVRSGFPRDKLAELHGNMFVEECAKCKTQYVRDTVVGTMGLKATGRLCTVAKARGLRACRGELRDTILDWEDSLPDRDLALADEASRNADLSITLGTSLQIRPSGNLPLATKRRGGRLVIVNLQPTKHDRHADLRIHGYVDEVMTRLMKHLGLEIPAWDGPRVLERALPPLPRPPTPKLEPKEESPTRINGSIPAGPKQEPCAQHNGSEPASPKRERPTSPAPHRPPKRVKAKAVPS
Put plainly: Sirtuin activity with fluorogenic lysyl substrates. In kind it is biochemical. The conditions noted are these: 50 μM substrate, 500 μM NAD^+. How it is done: as §1, §2, §3

For the next test, the target named is T5, HDAC3 (Homo sapiens, UniProt O15379).
T5 construct: purchased ENZO Life Sciences BML-SE507
T5 sequence (O15379 whole entry): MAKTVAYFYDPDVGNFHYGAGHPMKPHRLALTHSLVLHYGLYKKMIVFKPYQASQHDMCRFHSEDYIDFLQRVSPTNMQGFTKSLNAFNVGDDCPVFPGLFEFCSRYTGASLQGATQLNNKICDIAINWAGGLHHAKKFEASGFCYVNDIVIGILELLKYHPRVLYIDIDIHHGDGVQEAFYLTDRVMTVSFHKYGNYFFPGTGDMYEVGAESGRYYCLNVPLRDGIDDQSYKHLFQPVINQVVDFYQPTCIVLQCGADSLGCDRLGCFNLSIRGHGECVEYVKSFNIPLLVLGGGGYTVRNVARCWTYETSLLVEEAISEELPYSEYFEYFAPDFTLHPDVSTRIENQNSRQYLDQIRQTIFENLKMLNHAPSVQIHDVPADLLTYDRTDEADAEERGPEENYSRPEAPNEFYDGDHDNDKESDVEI
Put plainly: HDAC activity with fluorogenic lysyl substrates. In kind it is biochemical. The conditions noted are these: 50 μM substrate. On the procedure: as §1, §2, §3

For another test, the target named is T6, HDAC8 (Homo sapiens, UniProt Q9BY41).
T6 construct: purchased ENZO Life Sciences BML-SE145
T6 sequence (Q9BY41 1-377): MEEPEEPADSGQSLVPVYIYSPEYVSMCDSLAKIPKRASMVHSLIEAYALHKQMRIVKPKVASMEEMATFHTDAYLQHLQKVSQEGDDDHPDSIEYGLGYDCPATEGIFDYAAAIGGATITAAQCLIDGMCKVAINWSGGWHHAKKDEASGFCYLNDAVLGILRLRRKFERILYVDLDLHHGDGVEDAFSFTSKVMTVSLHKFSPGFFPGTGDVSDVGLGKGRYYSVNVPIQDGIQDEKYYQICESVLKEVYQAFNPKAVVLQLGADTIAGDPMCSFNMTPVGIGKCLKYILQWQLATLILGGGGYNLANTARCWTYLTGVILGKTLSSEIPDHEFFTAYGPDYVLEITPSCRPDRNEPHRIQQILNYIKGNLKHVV
As to the kind of experiment: HDAC activity with fluorogenic lysyl substrates. To be noted: 50 μM substrate. Format: biochemical. On the procedure:
as §1, §2, §3

For a further test, the target named is T7, HDAC2 (Homo sapiens, UniProt Q92769).
T7 construct: purchased ENZO Life Sciences BML-SE500
T7 sequence (Q92769 whole entry): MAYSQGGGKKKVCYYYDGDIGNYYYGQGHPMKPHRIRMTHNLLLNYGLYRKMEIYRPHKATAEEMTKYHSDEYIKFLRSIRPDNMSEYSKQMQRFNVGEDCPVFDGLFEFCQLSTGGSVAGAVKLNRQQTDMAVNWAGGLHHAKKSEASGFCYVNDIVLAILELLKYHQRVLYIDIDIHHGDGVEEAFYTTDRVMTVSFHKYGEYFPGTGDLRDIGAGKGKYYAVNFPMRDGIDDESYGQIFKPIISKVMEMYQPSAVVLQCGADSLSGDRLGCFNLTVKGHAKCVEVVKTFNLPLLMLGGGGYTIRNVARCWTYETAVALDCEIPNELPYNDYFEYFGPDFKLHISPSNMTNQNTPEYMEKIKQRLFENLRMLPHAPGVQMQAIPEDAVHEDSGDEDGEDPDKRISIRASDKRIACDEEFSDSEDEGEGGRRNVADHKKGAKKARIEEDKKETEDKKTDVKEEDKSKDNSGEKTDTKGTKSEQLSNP
Put plainly: HDAC activity with fluorogenic lysyl substrates. In kind it is biochemical. The conditions noted are these: 50 μM substrate. On the procedure:
as §1, §2, §3

In a further test the test system is HeLa Nuclear Extract. Put plainly: Activity of HeLa nuclear extract with fluorogenic lysyl substrates. Format: biochemical, human. To be noted: 50 μM substrate. On the procedure: as §1, §2, §3

The source of these data is patent US10920265B2, “Compounds and methods for detection of enzymes that remove methyl succinyl groups from epsilon-amino lysine moieties” (Enzo Life Sciences, Inc., priority 2011, dated 2021).

Values joined by “and” are separate entries in the source; they are usually repeats but may differ in a detail not shown here. Identical values can stand only once. *: point of attachment. AMC = Cc1cc(=O)oc2cc(N*)ccc12

T1 sequence (O15379 whole entry): as the sequence (O15379 whole entry) above
T1 sequence (O75376 395-489 partner limits assumed): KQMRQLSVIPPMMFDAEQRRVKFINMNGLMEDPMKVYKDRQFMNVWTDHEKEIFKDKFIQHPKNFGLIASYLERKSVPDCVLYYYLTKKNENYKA
T3 sequence (Q13547 whole entry): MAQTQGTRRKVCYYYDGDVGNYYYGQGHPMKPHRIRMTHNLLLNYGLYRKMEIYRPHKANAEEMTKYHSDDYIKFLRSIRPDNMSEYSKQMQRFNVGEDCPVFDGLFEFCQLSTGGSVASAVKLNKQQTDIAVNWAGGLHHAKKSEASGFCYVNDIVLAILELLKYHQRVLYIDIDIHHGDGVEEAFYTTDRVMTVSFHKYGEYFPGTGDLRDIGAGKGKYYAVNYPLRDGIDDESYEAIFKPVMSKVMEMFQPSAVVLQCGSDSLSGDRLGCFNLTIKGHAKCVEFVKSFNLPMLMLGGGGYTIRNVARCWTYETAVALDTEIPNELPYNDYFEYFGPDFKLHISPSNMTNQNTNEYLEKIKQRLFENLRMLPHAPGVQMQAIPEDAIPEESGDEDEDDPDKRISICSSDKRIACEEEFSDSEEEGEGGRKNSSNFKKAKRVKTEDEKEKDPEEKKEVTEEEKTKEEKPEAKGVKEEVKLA

Regarding “Ac-Arg-His-Lys-Lys(ε-acetyl)-AMC (Ac-RHKK(Ac)-{AMC}; SMILES CC(=O)NCCCC[C@H](NC(=O)[C@H](CCCCN)NC(=O)[C@H](Cc1c[nH]cn1)NC(=O)[C@H](CCCNC(=N)N)NC(C)=O)C(=O)Nc1ccc2c(C)cc(=O)oc2c1) [Ac-RHKK(Ac)-AMC, p53 peptide fluorogenic deacetylase substrate, Cat. # BML-KI177, reference compound]”, the “Activity (pmol/min/μg)” value is recorded as “Ac-RHKK(Ac)-AMC/687 pmol/min/μg” with HDAC3/NCOR1 Complex, “Ac-RHKK(Ac)-AMC/2.72 pmol/min/μg” in the test with HDAC10, “Ac-RHKK(Ac)-AMC/21 pmol/min/μg” with HDAC1 and “Ac-RHKK(Ac)-AMC/0.052 pmol/min/μg” in the test with SIRT6.
Regarding `CC(=O)NCCCCC(NC(C)=O)C(=O)Nc1ccc2c(C)cc(=O)oc2c1` (stereo not drawn) [Ac-Lys(Ac.)-AMC, Ac-Lys(ε-acetyl)-AMC, reference compound], the “Activity” value at HDAC3 (listed as Ac-Lys(Acetyl)-AMC) is 3.8 pmol/min/µg and 3.80 pmol/min/µg; on HDAC3/NCOR1 Complex, 668 pmol/min/µg; at HDAC8, 0.091 pmol/min/µg; on HDAC2, 554 pmol/min/µg; at HDAC10, 1.21 pmol/min/µg; on HDAC1, 14.8 pmol/min/µg. The “Activity” value with HeLa Nuclear Extract came out at 31 pmol/min/µg.
In the case of `CC(=O)N[C@@H](CCCCNC(=O)CCC(=O)O)C(=O)Nc1ccc2c(C)cc(=O)oc2c1` [Compound 1, N—(N^α-acetyl-L-Lysine(N^ε-succinyl))-AMC], the “Activity (pmol/min/μg)” value at HDAC3, on HDAC8, at HDAC10, on HDAC1 and on SIRT6 was “Undetectable” in each case. The “Activity” value at HDAC3/NCOR1 Complex came out at 0.40 pmol/min/µg; on HDAC2, 0.28 pmol/min/µg; with HeLa Nuclear Extract it was 0.012 pmol/min/µg.
`COC(=O)CCC(=O)NCCCC[C@H](NC(C)=O)C(=O)Nc1ccc2c(C)cc(=O)oc2c1` [Compound 5, N—(N^α-acetyl-L-Lysine(N^ε-methyl succinyl))-AMC]: the “Activity” value stood at 0.431 pmol/min/µg on HDAC3; 53.750 pmol/min/µg on HDAC3/NCOR1 Complex; 0.003 pmol/min/µg at HDAC8; 31.330 pmol/min/µg on HDAC2; 0.798 pmol/min/µg at HDAC1; 0.006 pmol/min/µg on SIRT6. Further, the “Activity” value in the test with HeLa Nuclear Extract stood at 1.764 pmol/min/µg.
Regarding `CCCCCCCCCCCCCC(=O)NCCCC[C@H](NC(C)=O)C(=O)Nc1ccc2c(C)cc(=O)oc2c1` [Compound 4, N—(N^α-acetyl-L-Lysine(N^ε-myristoyl))-AMC], the “Activity” value was found to be 0.963 pmol/min/µg on HDAC3; 79.023 pmol/min/µg at HDAC3/NCOR1 Complex; 83.05 pmol/min/µg at HDAC2; 1.651 pmol/min/µg on HDAC1; 0.074 pmol/min/µg at SIRT6; 0.819 pmol/min/µg in the test with HeLa Nuclear Extract. On HDAC8, the “Activity (pmol/min/μg)” value is “Undetectable”.
